From patent publication US20250230193A1, “CYCLIC COMPOUND HAVING SELECTIVE KRAS INHIBITORY EFFECT ON HRAS AND NRAS” (CHUGAI SEIYAKU KABUSHIKI KAISHA, priority 2022, published 2025)
Where a SMILES comes first, the peptide text is derived from it. Bridges are numbered along the chain shown (N, C = ends). [ ]: non-standard residue; d: D form. hPhe(3,5-F2-4-CF3) = N[C@@H](CCc1cc(F)c(C(F)(F)F)c(F)c1)C(=O)O; NPrPhe(4-CF3) = CCCN[C@@H](Cc1ccc(C(F)(F)F)cc1)C(=O)O; NMeGly(cPent) = CN[C@H](C(=O)O)C1CCCC1; NMeD = CN[C@@H](CC(=O)O)C(=O)O; NMeL = CN[C@@H](CC(C)C)C(=O)O; Ac5c = NC1(C(=O)O)CCCC1; Sar = CNCC(=O)O

Tests used:
[1] = target: GDP-bound NRAS wild-type protein (Homo sapiens, UniProt P01111); test: Binding to NRAS by surface plasmon resonance (SPR), Single Cycle Kinetics; conditions: SPR
GDP-bound NRAS wild-type protein, sequence (P01111 whole entry): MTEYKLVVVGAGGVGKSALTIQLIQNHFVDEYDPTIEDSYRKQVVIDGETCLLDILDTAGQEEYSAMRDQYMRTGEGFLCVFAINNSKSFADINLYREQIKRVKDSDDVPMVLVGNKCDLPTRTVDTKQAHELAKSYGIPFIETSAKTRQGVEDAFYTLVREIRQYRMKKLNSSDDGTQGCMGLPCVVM

[2] = target: GDP-bound HRAS wild-type protein (Homo sapiens, UniProt P01112); test: Binding to HRAS by surface plasmon resonance (SPR), Single Cycle Kinetics; conditions: SPR
GDP-bound HRAS wild-type protein, sequence (P01112 whole entry): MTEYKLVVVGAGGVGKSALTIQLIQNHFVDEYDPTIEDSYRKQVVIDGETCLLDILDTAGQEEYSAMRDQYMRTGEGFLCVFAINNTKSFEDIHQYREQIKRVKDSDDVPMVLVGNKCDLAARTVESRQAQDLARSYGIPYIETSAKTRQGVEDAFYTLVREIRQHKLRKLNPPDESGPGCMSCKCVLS

Compound | NRAS/KRAS (ratio of KD value with respect to GDP-bound NRAS wild-type protein to KD value with respect to KRAS) [1] | HRAS/KRAS (ratio of KD value with respect to GDP-bound HRAS wild-type protein to KD value with respect to KRAS) [2] | other results
CCO[C@@H]1C[C@H]2C(=O)NC3(CCC3)C(=O)N(C)[C@@H](C3CCCC3)C(=O)N(C)[C@H](C(=O)N(C)C)CC(=O)N(C)[C@@H](CC)C(=O)N[C@@H]([C@@H](C)CC)C(=O)N(C)CC(=O)N(C)[C@H]3C/C=C\CCN(C3=O)[C@@H](Cc3ccc(C(F)(F)F)cc3)C(=O)N(C)CC(=O)N[C@@H](CCc3ccc(C(F)(F)F)c(Cl)c3)C(=O)N2C1 [PP0978] | – | – | NRAS/KRAS (ratio of KD value with respect to NRAS to KD value with respect to KRAS) ([1]; KD ratio, GDP-bound NRAS wild-type vs GDP-bound KRAS wild-type): A (a compound having 10 or more and less than 20 is denoted as A); HRAS/KRAS (ratio of KD value with respect to HRAS to KD value with respect to KRAS) ([2]; KD ratio, GDP-bound HRAS wild-type vs GDP-bound KRAS wild-type): B (a compound having 3 or more and less than 10 is denoted as B)
CCCN1C(=O)CN(C)C(=O)CN(C)C(=O)[C@H]([C@@H](C)CC)NC(=O)[C@H](CC(C)C)N(C)C(=O)C[C@@H](C(=O)N(C)C)N(C)C(=O)[C@H](C2CCCC2)N(C)C(=O)C2(CCCC2)NC(=O)[C@@H]2CCCN2C(=O)[C@H](CCc2cc(F)c(C(F)(F)F)c(F)c2)NC(=O)CN(C)C(=O)[C@@H]1Cc1ccc(C(F)(F)F)cc1 [PP0788] ([NMeL]I[Sar][Sar][NPrPhe(4-CF3)][Sar][hPhe(3,5-F2-4-CF3)]P[Ac5c][NMeGly(cPent)][NMeD]-NMe2; lactam N-11) | B (a compound having 3 or more and less than 10 is denoted as B) | C (A compound having a KD ratio of 0.1 or more and less than 3 is denoted as C) | –
CC[C@H](C)[C@@H]1NC(=O)[C@H](C)N(C)C(=O)C[C@@H](C(=O)N(C)C)N(C)C(=O)[C@H](C2CCCC2)N(C)C(=O)C2(CCCC2)NC(=O)[C@@H]2CC(F)(F)CN2C(=O)[C@H](CCc2cc(F)c(C(F)(F)F)c(F)c2)NC(=O)CN(C)C(=O)[C@H](Cc2ccc(C(F)(F)F)cc2)N2CCCC[C@@H](C2=O)N(C)C(=O)CN(C)C1=O [PP0583] | C (A compound having a KD ratio of 0.1 or more and less than 3 is denoted as C) | C (A compound having a KD ratio of 0.1 or more and less than 3 is denoted as C) | –
CCCN1C(=O)[C@H](C2CCCC2)N(C)C(=O)C2(CCC2)NC(=O)[C@@H]2C[C@@H](OCC)CN2C(=O)[C@H](CCc2cc(F)c(C(F)(F)F)c(F)c2)NC(=O)CN(C)C(=O)[C@H](Cc2ccc(C(F)(F)F)cc2)N2CCCCC[C@@H](C2=O)N(C)C(=O)CN(C)C(=O)[C@H]([C@@H](C)CC)NC(=O)[C@H](CC(C)C)N(C)C(=O)C[C@H]1C(=O)N1CCOCC1 [PP0639] | B (a compound having 3 or more and less than 10 is denoted as B) | B (a compound having 3 or more and less than 10 is denoted as B) | –
CCC[C@H]1C(=O)N[C@@H]([C@@H](C)CC)C(=O)N(C)CC(=O)N(C)[C@H]2C/C=C\CCN(C2=O)[C@@H](Cc2ccc(C(F)(F)F)cc2)C(=O)N(C)CC(=O)N[C@@H](CCc2ccc(Cl)c(Cl)c2)C(=O)N2CCCCC[C@H]2C(=O)NC2(CC(C)(C)C2)C(=O)N(C)[C@@H](C(CC)CC)C(=O)N(C)[C@H](C(=O)N(C)C)CC(=O)N1C [PP3031] | – | – | NRAS/KRAS (ratio of KD value with respect to GDP-bound NRAS wild-type protein to KD value with respect to KRAS) ([1]; GDP-bound wild-type proteins): AA (a compound having 20 or more is denoted as AA); HRAS/KRAS (ratio of KD value with respect to GDP-bound HRAS wild-type protein to KD value with respect to KRAS) ([2]; GDP-bound wild-type proteins): A (a compound having 10 or more and less than 20 is denoted as A)
CC[C@H](C)[C@@H]1NC(=O)[C@H](CC(C)C)N(C)C(=O)C[C@@H](C(=O)N2CCOCC2)N(C)C(=O)[C@H](C2CCCC2)N(C)C(=O)C2(CCCC2)NC(=O)[C@@H]2CCCN2C(=O)[C@H](CCc2cc(F)c(C(F)(F)F)c(F)c2)NC(=O)CN(C)C(=O)[C@H](Cc2ccc(C(F)(F)F)cc2)N2CCCCC[C@@H](C2=O)N(C)C(=O)[C@@H]2CCN2C1=O [PP0484] | A (a compound having 10 or more and less than 20 is denoted as A) | B (a compound having 3 or more and less than 10 is denoted as B) | –
